Laboratory results taken from ChEMBL document CHEMBL1145551, “Further pterocellins from the New Zealand marine bryozoan Pterocella vesiculosa” (J Nat Prod, 2008).
Values after ≈ are worked out from the molar mass of the structure shown. Active and inactive are the calls of the source. The calls are words filed in the database; no cut-off is given here.

Key:
[1] = Cytotoxicity against african green monkey BSC1 cells at 40 ug/disc; assay type: cell-based; conditions: chlorocebus aethiops, bsc-1
Escherichia coli = assay: Antibacterial activity against Escherichia coli; assay type: functional, organism-based
Pseudomonas aeruginosa = assay: Antibacterial activity against Pseudomonas aeruginosa; assay type: functional, organism-based
Human alphaherpesvirus 1 = assay: Antiviral activity against HSV1 F ATCC VR 733 in african green monkey BSC1 cells; assay type: functional, organism-based; conditions: BSC-1
P388 = assay: Cytotoxicity against mouse P388 ATCC CCL 46 cells; assay type: functional, cell-based
Amorphotheca resinae = assay: Antifungal activity against Cladosporium resinae; assay type: functional, organism-based
Bacillus subtilis = assay: Antibacterial activity against Bacillus subtilis; assay type: functional
Poliovirus 1 = assay: Antiviral activity against PV1 in african green monkey BSC1 cells; assay type: functional, organism-based; conditions: BSC-1
Candida albicans = assay: Antifungal activity against Candida albicans; assay type: functional, organism-based
[2] = tested on: Trichophyton mentagrophytes; assay: Antifungal activity against Trichophyton mentagrophytes; assay type: functional, organism-based

Compound | Activity [1] | Activity (Escherichia coli) | Activity (Pseudomonas aeruginosa) | Activity (Human alphaherpesvirus 1) | IC50 (P388) [µg/mL] | Activity (Amorphotheca resinae) | MIC (Bacillus subtilis) [µg] | Activity (Poliovirus 1) | Activity (Candida albicans) | Activity [2]
COc1cn2c(c(-c3c4n(cc(OC)c3=O)-c3c(ccnc3CC(C)C)C4=O)c1=O)C(=O)c1ccnc(CC(C)C)c1-2 [PTEROCELLIN E] | Non-toxic | inactive | inactive | inactive | > 6.25 | inactive | 1 | inactive | inactive | inactive
COc1cn2c(cc1=O)C(=O)c1ccnc(CC(C)C)c1-2 [PTEROCELLIN A] |  |  |  |  | 0.477 (≈ 1.68 µM) |  |  |  |  | 
COc1cn2c(c(Cc3c4n(cc(OC)c3=O)-c3c(ccnc3CC(C)C)C4=O)c1=O)C(=O)c1ccnc(CC(C)C)c1-2 [PTEROCELLIN F] | Non-toxic | inactive | inactive | inactive | > 6.25 | inactive | 1 | inactive | inactive | inactive
COc1cn2c(cc1=O)C(=O)c1ccnc(Cc3ccccc3)c1-2 [PTEROCELLIN B] |  |  |  |  | 0.323 (≈ 1.01 µM) |  |  |  |  | 
COc1cn2c(c(CCCCC(C)=O)c1=O)C(=O)c1ccnc(CC(C)C)c1-2 [PTEROCELLIN C] | Non-toxic | inactive | inactive | inactive | > 6.25 | inactive | 0.2 | inactive | inactive | inactive
COc1cn2c(c(C(C)C)c1=O)C(=O)c1ccnc(CC(C)C)c1-2 [PTEROCELLIN D] |  |  | inactive |  | 4.77 (≈ 14.6 µM) | inactive | 0.5 |  | inactive | 
